# In US20230301883A1, “MOISTURIZING ANTIBACTERIAL COMPOSITION” (priority 2020, published 2023):
# Key:
# [1] = system: melanin content of cells; experiment: Melanin content assay; type: cell-based; details: for % Inhibition in Melanin Content: 72 hours incubation
# Description: In this Example, cells were grown for 24 hours and treated with bioactives and incubated for 72 hours. Post treatment, the cells were lysed and absorbance measured at 405 nm. The lysate was transferred to a fresh 384-well clear flat bottom plate and an […] was measured at 405 nm using a FlexStation 3 reader. (% reduction in melanin content was measured by taking the mean absorbance value of the control−the mean absorbance value of the treated cells/the mean absorbance value of the control)*100
# [2] = Water solubility in sensory oil (solvency of the oil for water); type: physicochemical; details: yes/no
# Description: (§1) A sensory oil can be used in the antibacterial composition to assist in leaving the user with a non-tacky feeling to the skin after application of the composition. The antibacterial composition comprises a sensory oil in an amount of 0.01 to 10% by weight, preferably 0.5 to 5% by weight including all values and ranges subsumed therein. The sensory oil can comprise a soluble sensory oil. Sensory oils desirable for use in the antibacterial composition disclosed herein must meet the following criteria: the sensory oil must be liquid, the sensory oil must be soluble in at least a 75/25 or higher ratio of EtOH/Water which is to be reflective of solubility in the final composition to give a clear final antibacterial composition, and the sensory oil must have no solvency for water.
# (§2) The examples are not meant to limit the materials that can be used but merely to illustrate oil type and level selected based on three criteria. […] Finally, the preferred oil must itself not have solvency for water such that during application and on drying as the ethanol and water evaporate, the water is also allowed to quickly evaporate leaving behind only the oil and any skin benefit actives/moisturizers if present.
# [3] = Solubility of sensory oil in 75/25 EtOH/Water blend; type: physicochemical
# Description: as §1, §2
# [4] = system: cells; experiment: Wound healing (scratch closure) assay; type: cell-based; details: 24 hours after scratch
# Description: In this example, various combinations of benefit agents were tested for resilience wound healing and barrier repair. For wound healing assessments, cells were grown to 80% confluency and treated with bioactives for 24 to 36 hours. Post treatment, a scratch was created on the cell and closure of the wound was monitored after 24 hours of incubation. Closure of the scratch area was calculated as a % closure of the wound. Microscopic images were captured at a magnification of 4× and the open wound area measurements were analyzed using the software CellSens. Wound closure in percentage=(mean of the readings of the open wound area at (t=24)−mean of the readings of the open wound area at (t=0)/mean of the readings at (t=0))*100.
Molecule,Water solubility in sensory oil [2],Solubility in 75/25 EtOH/Water [3] [%],also measured
"CCCCCCc1ccc(O)cc1O [4-Hexyl resorcinol, reference compound]",,,"inhibition at 10 µM ([1]; 10 micromolar, read-out: % inhibition in melanin content (benchmark)): ~33%"
CCCCC(CC)COC(=O)CC(O)C(=O)OCC(CC)CCCC (centres unmarked) [Diethyl hexyl malate],No,>30,
CCCCC(CC)COC(=O)CCCCCCCCC(=O)OCC(CC)CCCC (centres unmarked) [Diethyl hexyl sebacate],No,<10,
CCCCC(CC)COC(=O)CCCCC(=O)OCC(CC)CCCC (centres unmarked) [Diethylhexyl adipate],No,<10,
CC(C)OC(=O)CCCCC(=O)OC(C)C [Disopropyl adipate],No,>30,
CCCCCCCCCCCCOC(=O)C(C)O (centres unmarked) [Lauryl lactate],No,>30,
"NC(=O)c1cccnc1 [Vitamin B3, niacinamide]",,,% Inhibition in Melanin Content ([1]; 0.2%): 7.47%; % Closure in Scratch Area ([4]; 0.2%): 30%
Dicapryl maleate,No,<10,
Glyceryl Monoleate,yes,>30,
Isocetyl alcohol,No,<10,
PPG-2 Isoceteth-20 Acetate,no,>30,
PPG-2-Isoceteth-2,Yes,>30,
Sodium Hyaluronate,,,% Inhibition in Melanin Content ([1]; 0.001%): 9.09%; % Closure in Scratch Area ([4]; 0.001%): 51%
tocopherol [Vitamin E],,,% Inhibition in Melanin Content ([1]; 0.001%): 3.56%; % Inhibition in Melanin Content ([1]; 0.05%): 15.62%; % Closure in Scratch Area ([4]; 0.001%): 32%; % Closure in Scratch Area ([4]; 0.05%): 48%
